Laboratory results reported in PubChem BioAssay AID1963436 (Molecular Pharmacology Branch, DTP, NCI, 2024).

Test system: OVCAR-5 complex spheroid (HUVEC/MSC), viability % T/C
Test: Anticancer human tumor OVCAR-5 cell line growth inhibition [Asc];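 further: spheroids exposed to agents for 7 days before readout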;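 on viability, T/C: 100% = DMSO vehicle-treated wells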
Conditions: for IC50: curve of first compound; for viability, T/C: stronger effect = lower value
How it was run: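 Complex spheroids combining tumor cells with HUVEC endothelial cells and human MSCs, at 37 degrees C, 5% CO2; agents tested alone or combined, half-log dilutions from at or near clinical Cmax, or 10 microM if Cmax unknown.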

Compound C#Cc1c(F)ccc2cc(O)cc(-c3ncc4c(N5CC6CCC(C5)N6)nc(OCC56CCCN5CC(F)C6)nc4c3F)c12 (stereo not given) + CCN1C(C(=O)NC23CCC(C(=O)O)(CC2)CC3)C(c2cccc(Cl)c2F)C2(C(=O)Nc3cc(Cl)ccc32)C12CCCCC2 has an IC50 (second compound 0.03 µM) of 6.75 µM, an IC50 (second compound 0.0949 µM) of 6.76 µM and an IC50 (second compound 0.3 µM) of 6.72 µM. For the same compound, the IC50 (second compound 0.949 µM) was 6.51 µM, the IC50 (second compound 3 µM) was 5.41 µM and the viability, T/C (second compound 0.03 µM, first compound 0.0316 µM) was 108%. For the same compound, the viability, T/C (second compound 0.03 µM, first compound 0.1 µM) was 108%, the viability, T/C (second compound 0.03 µM, first compound 0.316 µM) was 83.3% and the viability, T/C (second compound 0.03 µM, first compound 1 µM) was 78%. The viability, T/C (second compound 0.03 µM, first compound 3.16 µM) was 73%, the viability, T/C (second compound 0.03 µM, first compound 10 µM) was 39.1% and the viability, T/C (second compound 0.0949 µM, first compound 0.0316 µM) was 106%. It also gave a viability, T/C (second compound 0.0949 µM, first compound 0.1 µM) of 105%, a viability, T/C (second compound 0.0949 µM, first compound 0.316 µM) of 91.1% and a viability, T/C (second compound 0.0949 µM, first compound 1 µM) of 88.8%. For the same compound, the viability, T/C (second compound 0.0949 µM, first compound 3.16 µM) was 66.5%, the viability, T/C (second compound 0.0949 µM, first compound 10 µM) was 40.8% and the viability, T/C (second compound 0.3 µM, first compound 0.0316 µM) was 101%. The viability, T/C (second compound 0.3 µM, first compound 0.1 µM) was 107%, the viability, T/C (second compound 0.3 µM, first compound 0.316 µM) was 106% and the viability, T/C (second compound 0.3 µM, first compound 1 µM) was 74.8%. The viability, T/C (second compound 0.3 µM, first compound 3.16 µM) was 66.2%, the viability, T/C (second compound 0.3 µM, first compound 10 µM) was 42.4% and the viability, T/C (second compound 0.949 µM, first compound 0.0316 µM) was 99%. The viability, T/C (second compound 0.949 µM, first compound 0.1 µM) was 109%, the viability, T/C (second compound 0.949 µM, first compound 0.316 µM) was 102% and the viability, T/C (second compound 0.949 µM, first compound 1 µM) was 84.4%. The viability, T/C (second compound 0.949 µM, first compound 3.16 µM) was 65.5%, the viability, T/C (second compound 0.949 µM, first compound 10 µM) was 41.3% and the viability, T/C (second compound 3 µM, first compound 0.0316 µM) was 104%. The viability, T/C (second compound 3 µM, first compound 0.1 µM) was 107%, the viability, T/C (second compound 3 µM, first compound 0.316 µM) was 107% and the viability, T/C (second compound 3 µM, first compound 1 µM) was 79.5%. It also gave a viability, T/C (second compound 3 µM, first compound 3.16 µM) of 61.2% and a viability, T/C (second compound 3 µM, first compound 10 µM) of 39.6%.

For CCN1C(C(=O)NC23CCC(C(=O)O)(CC2)CC3)C(c2cccc(Cl)c2F)C2(C(=O)Nc3cc(Cl)ccc32)C12CCCCC2 (stereo not given) + CNC(C)C(=O)NC1CN(S(=O)(=O)c2cccc(S(=O)(=O)N3CCC4CCC(C(=O)NC(c5ccccc5)c5ccccc5)N4C(=O)C(NC(=O)C(C)NC)C3)c2)CCC2CCC(C(=O)NC(c3ccccc3)c3ccccc3)N2C1=O, the IC50 (second compound 0.01 µM) was greater than 3 µM, the IC50 (second compound 0.0316 µM) was greater than 3 µM and the IC50 (second compound 0.1 µM) was greater than 3 µM. It also gave an IC50 (second compound 0.316 µM) greater than 3 µM, an IC50 (second compound 1 µM) greater than 3 µM and a viability, T/C (second compound 0.01 µM, first compound 0.00949 µM) of 92.6%. The viability, T/C (second compound 0.01 µM, first compound 0.03 µM) was 96.2%, the viability, T/C (second compound 0.01 µM, first compound 0.0949 µM) was 94.8% and the viability, T/C (second compound 0.01 µM, first compound 0.3 µM) was 98%. The viability, T/C (second compound 0.01 µM, first compound 0.949 µM) was 106%, the viability, T/C (second compound 0.01 µM, first compound 3 µM) was 101% and the viability, T/C (second compound 0.0316 µM, first compound 0.00949 µM) was 84.8%. For the same compound, the viability, T/C (second compound 0.0316 µM, first compound 0.03 µM) was 89%, the viability, T/C (second compound 0.0316 µM, first compound 0.0949 µM) was 80.7% and the viability, T/C (second compound 0.0316 µM, first compound 0.3 µM) was 84.8%. It also gave a viability, T/C (second compound 0.0316 µM, first compound 0.949 µM) of 83.4%, a viability, T/C (second compound 0.0316 µM, first compound 3 µM) of 93.8% and a viability, T/C (second compound 0.1 µM, first compound 0.00949 µM) of 88.6%. The viability, T/C (second compound 0.1 µM, first compound 0.03 µM) was 87.9%, the viability, T/C (second compound 0.1 µM, first compound 0.0949 µM) was 88.6% and the viability, T/C (second compound 0.1 µM, first compound 0.3 µM) was 84.8%. For the same compound, the viability, T/C (second compound 0.1 µM, first compound 0.949 µM) was 90.7%, the viability, T/C (second compound 0.1 µM, first compound 3 µM) was 86.7% and the viability, T/C (second compound 0.316 µM, first compound 0.00949 µM) was 84.4%. The viability, T/C (second compound 0.316 µM, first compound 0.03 µM) was 85%, the viability, T/C (second compound 0.316 µM, first compound 0.0949 µM) was 79% and the viability, T/C (second compound 0.316 µM, first compound 0.3 µM) was 84.2%. The viability, T/C (second compound 0.316 µM, first compound 0.949 µM) was 94.8%, the viability, T/C (second compound 0.316 µM, first compound 3 µM) was 89.6% and the viability, T/C (second compound 1 µM, first compound 0.00949 µM) was 97.2%. It also gave a viability, T/C (second compound 1 µM, first compound 0.03 µM) of 100%, a viability, T/C (second compound 1 µM, first compound 0.0949 µM) of 86.9% and a viability, T/C (second compound 1 µM, first compound 0.3 µM) of 86.9%. The viability, T/C (second compound 1 µM, first compound 0.949 µM) was 90.1% and the viability, T/C (second compound 1 µM, first compound 3 µM) was 85.2%.
